The assay relates to tumor-repopulating cells of B16-F1 melanoma. The assay is described as follows: Inhibitory activity on proliferation of tumor-repopulating cells (TRCs) of B16-F1 melanoma in 3D fibrin gel. Format: cell-based. The conditions noted are these: for IC50: colony tumor volume, read-out: IC50 of inhibition on TRCs of B16-F1 melanoma/μM. The protocol:
B16-F1 Melanoma cells were incubated with 3D fibrin gel medium (90-Pa) for 5 days, and the desired tumor-repopulating cells of melanoma were screened (Nat. Mater. 2012, 11, 734). Subsequently, the culture medium was respectively treated with collagenase and neutral protease II, and the tumor-repopulating cells of B16-F1 melanoma were released, then the obtained repopulating cells were transferred to a freshly prepared medium to be resuspended and maintained at single-cell state. The tumor-repopulating cells of B16-F1 melanoma were inoculated in 3D fibrin gel medium (90-Pa) for 5 days, with 0.1% DMSO as the negative control group, Tazarotene and Bexarotene as the positive control drugs respectively, […] for 5 days. The colony tumor size was measured and calculated, and the inhibition rate of each drug on the tumor-repopulating cells of B16-F1 melanoma was calculated. The results of inhibitory activity of the compound of the present invention on the proliferation of tumor-repopulating cells of B16-F1 melanoma were shown in Table 2 below.

The mark [1] stands for this setting: Mus musculus, B16-F1, 120 h, 10 μM, incubated 5 days, colony tumor size, read-out: Inhibition rate on TRCs of B16-F1 melanoma at a concentration of 10 μM (%).
The mark [2] stands for this setting: Mus musculus, B16-F1, dose-response curve.
[3] abbreviates: Mus musculus, B16-F1, 10 μM (Table 3), read-out: Inhibition rate on TRCs of B16-F1 melanoma at a concentration of 10 μM/%.

Where two headings read alike, the source gives them in different places.

As for `C=C(c1ccc(C(=O)O)cc1)c1cc2c(cc1C)C(C)(C)CCC2(C)C` [Bexarotene, reference compound], the inhibition at 10 µM under setting [1] came to 63.3%.
Regarding `CCOC(=O)c1ccc(C#Cc2ccc3c(c2)C(C)(C)CCS3)nc1` [Tazarotene, reference compound], under setting [1], the inhibition at 10 µM was determined as 67.6%.
On to `COC(=O)c1ccc(C#Cc2ccc3c(c2)C(C)(C)CCS3)cc1O` [WYC-101, methyl 4-((4,4-dimethylthiochroman-6-yl)ethynyl)-2-hydroxybenzoate], for which, under setting [1], the inhibition at 10 µM is 76%.
Same read-out and setting: next, `COC(=O)c1ccc(C#Cc2ccc3c(c2)C(C)(C)CCS3)cc1OC` [WYC-102, methyl 4-((4,4-dimethylthiochroman-6-yl)ethynyl)-2-methoxybenzoate]: 59.1%.
Turning to `CC1(C)CCSc2ccc(C#Cc3ccc(C(=O)O)c(O)c3)cc21` [WYC-105, 4-((4,4-dimethylthiochroman-6-yl)ethynyl)-2-hydroxybenzoic Acid], the inhibition at 10 µM (Mus musculus, B16-F1, 120 h, read-out: Inhibition rate on TRCs of B16-F1 melanoma at a concentration of 10 μM (%)) turned out to be 64.1%.
For the compound `COc1cc(C#Cc2ccc3c(c2)C(C)(C)CCS3)ccc1C(=O)O` [WYC-106], under setting [1], the inhibition at 10 µM was determined as 72.4%.
As to `COC(=O)c1ccc(C#Cc2ccc3c(c2)C(C)(C)CCS3)c(O)c1` [WYC-107, methyl 4-((4,4-dimethylthiochroman-6-yl)ethynyl)-3-hydroxybenzoate], the inhibition at 10 µM under setting [1] came out at 75% and the inhibition at 10 µM under setting [3] stood at 75%. Also, the IC50 under setting [2] is 2.12 µM.
For `CC1(C)CCSc2ccc(C#Cc3cnc(C#N)nc3)cc21` [WYC-202, 2-cyano-5-((4,4-dimethylthiochroman-6-yl)ethynyl)pyrimidine], under setting [1], the inhibition at 10 µM worked out at 85.3%.
Same read-out and setting: then `CCOC(=O)c1cnc(C#Cc2ccc3c(c2)C(C)(C)CCS3)nc1` [WYC-203, ethyl 2-((4,4-dimethylthiochroman-6-yl)ethynyl)pyrimidin-5-carboxylate], with 90.5%; and `COC(=O)c1ncc(C#Cc2ccc3c(c2)C(C)(C)CCS3)cn1` [WYC-204, methyl 5-((4,4-dimethylthiochroman-6-yl)ethynyl)pyrimidin-2-carboxylate], with 25.6%.
In the case of `CCOC(=O)c1ncc(C#Cc2ccc3c(c2)C(C)(C)CCS3)cn1` [WYC-205, ethyl 5-((4,4-dimethylthiochroman-6-yl)ethynyl)pyrimidin-2-carboxylate], the inhibition at 10 µM under setting [1] was found to be 91.5%.
On the same count and under the same terms, next, `CC1(C)CCSc2ccc(C#Cc3ncc(C(=O)O)cn3)cc21` [WYC-206, 2-((4,4-dimethylthiochroman-6-yl)ethynyl)pyrimidin-5-carboxylic acid]: 77.2%.
Take `CC1(C)CC[S+]([O-])c2ccc(C#Cc3cnc(C#N)nc3)cc21` (centres unmarked) [WYC-207, 2-cyano-5-((4,4-dimethyl-1-oxothiochroman-6-yl)ethynyl)pyrimidine]: the inhibition at 10 µM is, setting by setting: under setting [1], 92.5%; under setting [3], 92.5%. The IC50 under setting [2] came out at 3.3 µM.
Take `CCOC(=O)c1ncc(C#Cc2ccc3c(c2)C(C)(C)CC[S+]3[O-])cn1` (centres unmarked) [WYC-208, ethyl 5-((4,4-dimethyl-1-oxothiochroman-6-yl)ethynyl)pyrimidin-2-carboxylate]: under setting [1], the inhibition at 10 µM is 27.7%.
Regarding `CCOC(=O)c1cnc(C#Cc2ccc3c(c2)C(C)(C)CC[S@+]3[O-])nc1` [WYC-209A, ethyl 2-((4,4-dimethyl-1S-oxothiochroman-6-yl)ethynyl)pyrimidin-5-carboxylate], under “10 μM (Table 3)”, the “Inhibition rate on TRCs of B16-F1 melanoma at a concentration of 10 μM/%” value is reported as 98.9%. Besides, the “Inhibition rate on TRCs of B16-F1 melanoma at a concentration of 10 μM (%)” value (10 μM, incubated 5 days, colony tumor size) stood at 98.9%. Under “dose-response curve”, the IC50 turned out to be 0.15 µM.
As for `CCOC(=O)c1cnc(C#Cc2ccc3c(c2)C(C)(C)CC[S@@+]3[O-])nc1` [WYC-209B, ethyl 2-((4,4-dimethyl-1R-oxothiochroman-6-yl)ethynyl)pyrimidin-5-carboxylate], the inhibition at 10 µM under setting [1] turned out to be 98.7% and the inhibition at 10 µM under setting [3] worked out at 98.7%. Besides, under setting [2], the IC50 was 0.22 µM.
On to `CC1(C)CC[S+]([O-])c2ccc(C#Cc3ncc(C(=O)O)cn3)cc21` (centres unmarked) [WYC-210, 2-((4,4-dimethyl-1-oxothiochroman-6-yl)ethynyl)pyrimidin-5-carboxylic Acid], for which the inhibition at 10 µM under setting [1] was 18.1%.
As to `CC1(C)CCSc2ccc(C#Cc3ccc(C(=O)O)c(N)c3)cc21` [WYC-212, 2-amino-4-((4,4-dimethylthiochroman-6-yl)ethynyl)benzoic Acid], the inhibition at 10 µM came out at 93.2% under setting [1] and 93.2% under setting [3]. The IC50 under setting [2] amounted to 2.28 µM.
For `CC(=O)Nc1cc(C#Cc2ccc3c(c2)C(C)(C)CCS3)ccc1C(=O)O` [WYC-213, 2-acetamido-4-((4,4-dimethylthiochroman-6-yl)ethynyl)benzoic Acid], the inhibition at 10 µM under setting [1] is 71.1%.
Same read-out and setting: then `CC1(C)CC[S+]([O-])c2ccc(C#Cc3ccc(C(=O)O)c(N)c3)cc21` (centres unmarked) [WYC-214, 2-amino-4-((4,4-dimethyl-1-oxothiochroman-6-yl)ethynyl)benzoic Acid], with 51.6%; and `COC(=O)c1ccc(C#Cc2ccc3c(c2)C(C)(C)CC[S+]3[O-])cc1N` (centres unmarked) [WYC-215, methyl 2-amino-4-((4,4-dimethyl-1-oxothiochroman-6-yl)ethynyl)benzoate], with 80.2%; and `CCOC(=O)c1ccc(C#Cc2ccc3c(c2)C(C)(C)CCS3)cc1N` [WYC-216, ethyl 2-amino-4-((4,4-dimethylthiochroman-6-yl)ethynyl)benzoate], with 84%.
Regarding `CCOC(=O)c1ccc(C#Cc2ccc3c(c2)C(C)(C)CCS3)cc1NC(C)=O` [WYC-217, ethyl 2-acetamido-4-((4,4-dimethylthiochroman-6-yl)ethynyl)benzoate], the inhibition at 10 µM under setting [1] came to 90.3%.
Still for that read-out and setting: then `CCOC(=O)c1ccc(C#Cc2ccc3c(c2)C(C)(C)CC[S+]3[O-])cc1N` (centres unmarked) [WYC-218, ethyl 2-amino-4-((4,4-dimethyl-1-oxothiochroman-6-yl)ethynyl)benzoate], with 90.4%; and `CNc1cc(C#Cc2ccc3c(c2)C(C)(C)CCS3)ccc1C(=O)OC` [WYC-219, methyl 2-methylamino-4-((4,4-dimethylthiochroman-6-yl)ethynyl)benzoate], with 64.8%.
The same measure, in the same setting: next, `COC(=O)c1ccc(C#Cc2ccc3c(c2)C(C)(C)CCS3)cc1N` [WYC-220, methyl 2-amino-4-((4,4-dimethylthiochroman-6-yl)ethynyl)benzoate]: 65.5%; `COC(=O)c1ccc(C#Cc2ccc3c(c2)C(c2ccccc2)=CCC3(C)C)cc1O` [WYC-301, methyl 4-((5,5-dimethyl-8-phenyl-5,6-dihydronaphth-2-yl)ethynyl)-2-hydroxybenzoate]: 34.4%; `CCOC(=O)c1ccc(C#Cc2ccc3c(c2)C(c2ccccc2)=CCC3(C)C)cc1O` [WYC-302, ethyl 4-((5,5-dimethyl-8-phenyl-5,6-dihydronaphth-2-yl)ethynyl)-2-hydroxybenzoate]: 21.9%.
The same measure, in the same setting: then `CCOC(=O)c1ccc(C#Cc2ccc3c(c2)C(C)(C)CCS3)cc1F` [WYC-303, ethyl 2-fluoro-4-((4,4-dimethylthiochroman-6-yl)ethynyl)benzoate], with 71.1%.
In the case of `CC1(C)CCSc2ccc(C#Cc3ccc(C(=O)O)c(F)c3)cc21` [WYC-304, 2-fluoro-4-((4,4-dimethylthiochroman-6-yl)ethynyl)benzoic Acid], under setting [1], the inhibition at 10 µM came to 75.8%.
Same read-out and setting: then `CCOC(=O)c1ccc(C#Cc2ccc3c(c2)C(c2ccccc2)=CCC3(C)C)cc1F` [WYC-305, ethyl 4-((5,5-dimethyl-8-phenyl-5,6-dihydronaphth-2-yl)ethynyl)-2-fluorobenzoate], with 26%.
Take `CC1(C)CC=C(c2ccccc2)c2cc(C#Cc3ccc(C(=O)O)c(F)c3)ccc21` [WYC-306, 4-((5,5-dimethyl-8-phenyl-5,6-dihydronaphth-2-yl)ethynyl)-2-fluorobenzic Acid]: the inhibition at 10 µM under setting [1] came to 15.2%.
On the same count and under the same terms, next, `CCOC(=O)c1ccc(C#Cc2ccc3c(c2)C(C)(C)CCS3)c(F)c1` [WYC-307, ethyl 3-fluoro-4-((4,4-dimethylthiochroman-6-yl)ethynyl)benzoate]: 70.3%.
In the case of `CCOC(=O)c1ccc(C#Cc2ccc3c(c2)C(C)(C)CCS3)c([N+](=O)[O-])c1` [WYC-308, ethyl 3-nitro-4-((4,4-dimethylthiochroman-6-yl)ethynyl)benzoate], the inhibition at 10 µM under setting [1] stood at 71.9%.
The same measure, in the same setting: next, `CC1(C)CCSc2ccc(C#Cc3ccc(C(=O)O)cc3[N+](=O)[O-])cc21` [WYC-309, 3-nitro-4-((4,4-dimethylthiochroman-6-yl)ethynyl)benzoic Acid]: 56.8%; `CC1(C)CCSc2ccc(C#Cc3ccc(C(=O)O)cc3F)cc21` [WYC-310, 3-fluoro-4((4,4-dimethylthiochroman-6-yl)ethynyl)benzoic Acid]: 76.8%; `CCOC(=O)c1ccc(C#Cc2ccc3c(c2)C(C)(C)CC[S+]3[O-])c([N+](=O)[O-])c1` (centres unmarked) [WYC-311, ethyl 3-nitro-4-((4,4-dimethyl-1-oxothiochroman-6-yl)ethynyl)benzoate]: 80.2%.

(Values after patent publication US10556879B2, “Retinoid compound, preparation method therefor, intermediates thereof and application thereof” (SHANGHAI INSTITUTE OF ORGANIC CHEMISTRY, CHINESE ACADEMY OF …, priority 2016, dated 2020).)
